The values below come from patent US20250000874A1, “BACTERIAL METABOLITES AND THEIR USE IN REDUCING INFLAMMATION” (LOYOLA UNIVERSITY OF CHICAGO, priority 2023, published 2025).

“Also recorded” adds a separate entry of the source.

Data set [1] relates to IC-21 murine peritoneal macrophages. Kind of data set: Toxicity assay, Cell Counting Kit-8 viability. The class given is cell-based, mouse. The following applies: 37° C. two days, CCK-8. As for the experimental part:
FIG. 10. […] IC-21 murine peritoneal macrophages were seeded at a density of 2.0×10^4 per well in a 96-well plate. Differing concentrations of compound JE ranging from […] were diluted in DMSO and added to the appropriate wells. Cells were incubated at 37° C. for 48 hours. After the incubation period, Cell Counting Kit-8 (Sigma-Aldrich) was used for quantification of viable cells. CCK-8 solution was added to each well and the plate was incubated at 37° C. for two hours. Levels of water-soluble tetrazolium salt reduced to formazan were then measured at a wavelength of 450 nm. Cell viability was found as a percentage by dividing each absorbance value by the negative control.
(§1) To test if JE has any toxicity, we first incubated murine macrophages with JE at different concentrations at 37° C. for two days, and determined viability of the cells. […] Further we injected the JE at 50 μM twice daily via I.P. for 3 or 5 days and then determined ALT levels in sera and examined the morphology in key organs, liver, kidney, spleen, intestines etc.

Data set [2] can be described thus: In vivo toxicity of JE given I.P.: serum ALT and organ histology. The following applies: JE 50 μM twice daily I.P. for 3 or 5 days. On the procedure: as §1
The test system of data set [3] is Raw 264.7 Cells. Description: JE on TNF-α and IL-6 production by Raw 264.7 cells upon TLR agonists. It counts as cell-based, mouse. The following applies: for decrease in TNF-α production: vs untreated macrophages. On the procedure: FIG. 13. The Effect of JE on TNF-α Production by Raw 264.7 Cells Upon Stimulation with TLR Agonists. Macrophages were incubated overnight with JE at a concentration of 50 μM at t 37° C., 5% CO2. The following day, the macrophages were stimulated with 10 ng/ml of LPS, 1 μg/ml of FLG-St, 3 μg/ml of PAM-3csk, 1 μM of ODN and 20 μg/ml of Poly: IC for 3 hours. Supernatants were collected, and TNF-α was measured by ELISA. The data are presented as mean±SEM (n=6). *p<0.05; **p<0.01; ***p<0.001. One of three experiments is shown.
FIG. 14. The Effect of JE on TNF-α Production by Raw 264.7 Cells Upon Stimulation with TLR Agonists. Macrophages were incubated overnight with JE at a concentration of 50 μM at 37° C., 5% CO2. The following day, the macrophages were stimulated with 1 μg/ml of FSL-1 2 μg/ml of Imiquimod for 3 hours. Supernatants were collected and TNF-α was measured by ELISA. Data are presented as mean±SEM (n=6). *p<0.05; **p<0.01; ***p <0.001. One of three experiments is shown.
FIG. 15. The Effect of JE on IL-6 Production by Raw 264.7 Cells Upon Stimulation with TLR Agonists. Macrophages were incubated overnight with JE at a concentration of 50 μM at t 37° C., 5% CO2. The following day, the macrophages were stimulated with TLR agonists at the same concentrations that I used for TNF-α induction. Supernatants were collected, and IL-6 was measured by ELISA. The data are presented as mean±SEM (n=6). *p<0.05; **p<0.01; ***p<0.001. One of three experiments is shown.
Murine macrophages, both RAW 264.7 macrophages and bone marrow-derived macrophages (BMDMs), were seeded and then pretreated overnight with the metabolite JE. The following day, the macrophages were stimulated with one of TLR agonists, including LPS, FLA-ST, ODN, Pam3SCK4, Poly: IC LMW, FSL, and Imiquimod for 3 hours, then the production of TNF-α, and IL-6 in the culture supernatants was measured by ELISA.

A further data set has as its system THP-1 cells. Kind of data set: NC on TNFα release in THP-1 cells in response to TLR agonists. The class given is cell-based, human. The following applies: 50 μM NC 18 hours. As for the experimental part:
(§2) FIG. 27A and FIG. 27B. Metabolite NC on TNFα release in response to LPS in human and murine macrophages in vitro. Macrophages were plated at a uniform density of 0.2×10^6 cells/mL in 24 well plates. These cells (FIG. 27A) were allowed to adhere, or, in the case of THP-1 cells FIG. 27B), differentiate using PMA. They were then treated for 18 hours with 50 μM of metabolite NC before being stimulated with 0.1 ug of LPS-EK. Supernatant was collected between 4-6 hours after addition of LPS and debris was removed via centrifugation at 1250 rpm for 5 minutes. TNFα was quantified in the supernatant using sandwich ELISA with standards of known concentrations.
(§3) FIG. 28A and FIG. 28B. Metabolite NC on TNFα release in macrophages in response to various TLR agonists. Raw 264.7 cells (FIG. 28A) and THP-1 FIG. 28B) cells were plated at a uniform density of 0.2×10^6 cells per mL and stimulated with various TLR agonists: Pam3CSK4, Poly I:C, LPS, Fla, FSL-1, imiquimod (ImiQ), and ODN-2006. NC reduced TNFα release in response to TLR3 (p<0.0001 via student's t-test for both Raw 264.7 cells and THP-1 cells) and TLR4 agonists in both cell lines.
(§4) To investigate the effects of compound NC, macrophages were stimulated with LPS, an endotoxin associated with gram-negative bacteria. Human and murine macrophage-like cells (THP-1 cells and Raw 264.7 cells, respectively) were plated in 24 well plates at a uniform density of 0.2×10^6 cells/mL. Following 18 hours of pretreatment with 50 μM metabolite NC, they were stimulated with 10 μg/mL of LPS. After 4-6 hours, supernatant was collected and TNFα was quantified using sandwich ELISA. NC reduces TNFα release from both THP-1 and Raw 264.7 macrophage-like cells in response to TLR4 agonist LPS in vitro.
(§5) Metabolite NC reduces inflammation in response to TLR4 agonist LPS. To further investigate the specificity of NC's action in TLR signaling, Raw 264.7 (FIG. 28A) and THP-1 (FIG. 28B) cells were once again plated at a uniform density of 0.2×10^6 cells/mL, treated with 50 μM metabolite NC for 18 hours, and stimulated with agonists for TLR1/2, TLR3, TLR4, TLR5, TLR6/2, TLR7 and TLR9. After 4-6 hours, supernatant was collected and TNFα was quantified via sandwich ELISA.

Data set [4] relates to Raw 264.7 Cells. Description: NC on TNFα release in Raw 264.7 cells in response to TLR agonists. The following applies: 50 μM NC 18 hours. The class given is cell-based, mouse. On the procedure: as §2, §3, §4, §5
The mark [5] stands for this setting: JE 50 μM overnight, TLR agonists 3 hours, vs media with TLR agonists.
Where [6] appears, read: TLR1/2, TLR5, TLR6/2, TLR7, TLR9 agonists.

`CC(=O)O[C@@H]1CC[C@H]2[C@H]3CC[C@H]4CC(F)(F)CC[C@]4(C)[C@H]3CC[C@]12C` [JE, 3,3-Difluoro-5-alpha-androstan-17-beta-yl acetate]: the “viability of the cells” value is recorded as “high viability; also recorded: did not show significant reduction” in data set [1] (JE 50 μM or below) and “reduced the viability” in data set [1] (JE >100 μM). Also, the “tissue damage in organs by histology (liver, kidney, spleen, intestines)” value in data set [2] was “did not see any tissue damage”. The “ALT levels in sera” value in data set [2] (vs control group) was “no significant higher levels”. Further, the “decrease in TNF-α production” value was 4 fold with Raw 264.7 Cells [3] (JE 50 μM overnight, TLR 1/2 agonist PAM-3CSK) and 4 fold in the data set on Raw 264.7 Cells [3] (JE 50 μM overnight, TLR 5 agonist FLG-ST). For the same compound, the TNF-α secretion result in the data set with Raw 264.7 Cells [3] (JE 50 μM overnight, TLR2/6 agonist FSL-1) is recorded as “completely abolished”; in the data set on Raw 264.7 Cells [3] (JE 50 μM overnight, TLR-3 agonist Poly: IC LMW), “completely abolished”. The TNF-α production entry is “reduced” with Raw 264.7 Cells [3] (JE 50 μM overnight, TLR4 agonist LPS) and “reduced” in the data set with Raw 264.7 Cells [3] (JE 50 μM overnight, TLR7 agonist Imiquimod). In addition, in the data set on Raw 264.7 Cells [3] (setting [5]), the “production of IL-6” value is “significantly reduced”. Moreover, the “production of TNF-α” value in the data set with Raw 264.7 Cells [3] (setting [5]) is “significantly reduced”. The “decrease in IL-6 secreted” value with Raw 264.7 Cells [3] (JE pretreatment, LPS, relative to untreated macrophages) is reported as 4 fold.

Regarding `CCCCCCCCCCCCCCCC(=O)N[C@@H](C(=O)O)[C@H](C)O` [NC, N-Palmitoyl-D-Threonine], the “TNFα release in response to TLR3 agonist Poly I:C” value is listed as “reduced” in the data set with THP-1 cells (4-6 hours, ELISA) and “reduced” in the data set with Raw 264.7 Cells [4] (4-6 hours, ELISA). Moreover, the “TNFα release in response to TLR4 agonist LPS” value is recorded as “reduced; also recorded: significantly less” with THP-1 cells (LPS, 4-6 hours, ELISA) and “reduced; also recorded: significantly less” with Raw 264.7 Cells [4] (LPS, 4-6 hours, ELISA). Moreover, the “TNFα release in the absence of LPS stimulation” value in the data set on THP-1 cells (unstimulated) and with Raw 264.7 Cells [4] (unstimulated) was “did not increase; also recorded: does not increase” each time. Also, the “TNFα release in response to other TLR agonists” value in the data set with THP-1 cells (setting [6]) and in the data set on Raw 264.7 Cells [4] (setting [6]) was “did not significantly reduce” in each case.
